In this experiment the test system is MV-4-11 cells. As to the kind of experiment: Gene expression microarray analysis (Affymetrix PrimeView) and GSEA. Conditions: MV-4-11 cells, 48 hours. On the set-up: RFU PODN (11730768_x_at) / Fold change /veh PODN (11730768_x_at) / RFU LINC00158 (11744669_a_at) / Fold change /veh LINC00158 (11744669_a_at) / RFU DUSP10 (11751237_a_at) / Fold change /veh DUSP10 (11751237_a_at) / RFU ID3 (11757404_x_at) / Fold change /veh ID3 (11757404_x_at) / RFU PLEKHG5 (11737974_s_at) / Fold change /veh PLEKHG5 (11737974_s_at) / RFU LRRC4B (11730491_at) / Fold change /veh LRRC4B (11730491_at) / RFU GIMAP4 (11747438_a_at) / Fold change /veh GIMAP4 (11747438_a_at) / RFU KRT8 (11758183_x_at) / Fold change /veh KRT8 (11758183_x_at) / RFU CNN1 (11734310_a_at) / Fold change /veh CNN1 (11734310_a_at) / RFU VPS37D (11726825_at) / Fold change /veh VPS37D (11726825_at) / RFU C10orf10 (11716522_x_at) / Fold change /veh C10orf10 (11716522_x_at) / RFU KIR2DL2 /// KIR2DL4 /// KIR2DL5A /// KIR2DL5B /// KIR2DS1 /// KIR2DS2 /// KIR2DS3 /// KIR2DS4 /// KIR3DL3 /// KIR3DL3 /// KIR3DS1 (11738374_at) / Fold change /veh KIR2DL2 /// KIR2DL4 /// KIR2DL5A /// KIR2DL5B /// KIR2DS1 /// KIR2DS2 /// KIR2DS3 /// KIR2DS4 /// KIR3DL3 /// KIR3DL3 /// KIR3DS1 (11738374_at) / RFU C1QL1 (11718748_at) / Fold change /veh C1QL1 (11718748_at) / RFU TMPRSS4 (11747572_a_at) / Fold change /veh TMPRSS4 (11747572_a_at) / RFU HAMP (11756126_x_at) / Fold change /veh HAMP (11756126_x_at) / RFU RNFT2 (11725882_a_at) / Fold change /veh RNFT2 (11725882_a_at) / RFU NR4A2 (11747474_a_at) / Fold change /veh NR4A2 (11747474_a_at) / RFU ABCC12 (11746883_a_at) / Fold change /veh ABCC12 (11746883_a_at) / RFU TMEM136 (11760407_x_at) / Fold change /veh TMEM136 (11760407_x_at) / RFU CLDN22 /// WWC2 (11732394_at) / Fold change /veh CLDN22 /// WWC2 (11732394_at) / RFU HLA-DPB1 (11760878_x_at) / Fold change /veh HLA-DPB1 (11760878_x_at) / RFU SPINT1 (11716480_a_at) / Fold change /veh SPINT1 (11716480_a_at) / RFU GAP43 (11754022_s_at) / Fold change /veh GAP43 (11754022_s_at) / RFU A4GNT (11735810_at) / Fold change /veh A4GNT (11735810_at) / RFU PRB3 (11715151_x_at) / Fold change /veh PRB3 (11715151_x_at) / RFU TUBB4B (11761932_at) / Fold change /veh TUBB4B (11761932_at) / RFU CAPN14 (11732068_a_at) / Fold change /veh CAPN14 (11732068_a_at) / RFU TMCC2 (11721928_a_at) / Fold change /veh TMCC2 (11721928_a_at) / RFU IRGQ (11745062_a_at) / Fold change /veh IRGQ (11745062_a_at) / RFU FAM174B (11720279_a_at) / Fold change /veh FAM174B (11720279_a_at) / RFU TMPRSS4 (11748680_a_at) / Fold change /veh TMPRSS4 (11748680_a_at) / RFU FAM212B (11763350_a_at) / Fold change /veh FAM212B (11763350_a_at) / RFU PLEKHG5 (11743358_a_at) / Fold change /veh PLEKHG5 (11743358_a_at) / RFU ZSCAN30 (11745921_a_at) / Fold change /veh ZSCAN30 (11745921_a_at) / RFU CMKLR1 (11741424_a_at) / Fold change /veh CMKLR1 (11741424_a_at) / RFU LOC101060620 /// MAPK8IP1 (11723275_at) / Fold change /veh LOC101060620 /// MAPK8IP1 (11723275_at) / RFU SPTSSB (11747773_x_at) / Fold change /veh SPTSSB (11747773_x_at) / RFU PRSS12 (11739890_at) / Fold change /veh PRSS12 (11739890_at) / RFU BIN1 (11741810_x_at) / Fold change /veh BIN1 (11741810_x_at) / RFU WNT11 (11732464_a_at) / Fold change /veh WNT11 (11732464_a_at) / RFU C10orf10 (11716521_a_at) / Fold change /veh C10orf10 (11716521_a_at) / RFU C5orf56 (11738089_at) / Fold change /veh C5orf56 (11738089_at) / RFU CYB561 (11721691_x_at) / Fold change /veh CYB561 (11721691_x_at) / RFU ANKRD19P (11752326_a_at) / Fold change /veh ANKRD19P (11752326_a_at) / RFU OR2T12 /// OR2T33 /// OR2T8 (11738714_s_at) / Fold change /veh OR2T12 /// OR2T33 /// OR2T8 (11738714_s_at) / RFU VCAN (11748164_a_at) / Fold change /veh VCAN (11748164_a_at) / RFU JSRP1 (11732532_at) / Fold change /veh JSRP1 (11732532_at) / RFU KRTAP10-11 (11738290_x_at) / Fold change /veh KRTAP10-11 (11738290_x_at) / RFU MYO3A (11730013_a_at) / Fold change /veh MYO3A (11730013_a_at) / RFU EBF3 (11725865_a_at) / Fold change /veh EBF3 (11725865_a_at) / RFU CAMK2N1 (11719241_x_at) / Fold change /veh CAMK2N1 (11719241_x_at) / RFU C5orf56 (11738088_a_at) / Fold change /veh C5orf56 (11738088_a_at) / RFU OLFML3 (11715873_a_at) / Fold change /veh OLFML3 (11715873_a_at) / RFU LOC100653217 /// NTM (11731650_a_at) / Fold change /veh LOC100653217 /// NTM (11731650_a_at) / RFU MAPK11 (11762145_a_at) / Fold change /veh MAPK11 (11762145_a_at) / RFU FIZ1 (11724087_x_at) / Fold change /veh FIZ1 (11724087_x_at) / RFU OASL (11726364_x_at) / Fold change /veh OASL (11726364_x_at) / RFU SOX15 (11748057_x_at) / Fold change /veh SOX15 (11748057_x_at) / RFU CD79A (11719716_a_at) / Fold change /veh CD79A (11719716_a_at) / RFU HIST1H1D (11736915_at) / Fold change /veh HIST1H1D (11736915_at) / RFU CASKIN2 (11723855_a_at) / Fold change /veh CASKIN2 (11723855_a_at) / RFU LOC730098 (11760151_x_at) / Fold change /veh LOC730098 (11760151_x_at) / RFU OR4N2 (11742367_at) / Fold change /veh OR4N2 (11742367_at) / RFU PRRT2 (11749266_a_at) / Fold change /veh PRRT2 (11749266_a_at) / RFU SNX32 (11753110_a_at) / Fold change /veh SNX32 (11753110_a_at) / RFU CDHR5 (11726645_a_at) / Fold change /veh CDHR5 (11726645_a_at) / RFU RCAN1 (11760418_a_at) / Fold change /veh RCAN1 (11760418_a_at) / RFU FAM167A (11723789_a_at) / Fold change /veh FAM167A (11723789_a_at) / RFU FAM26E (11764081_at) / Fold change /veh FAM26E (11764081_at) / RFU ISYNA1 (11749810_s_at) / Fold change /veh ISYNA1 (11749810_s_at) / RFU ACY1 (11761880_at) / Fold change /veh ACY1 (11761880_at) / RFU 11764098_at / Fold change /veh 11764098_at / RFU SAMD14 (11745864_x_at) / Fold change /veh SAMD14 (11745864_x_at) / RFU NPB (11741838_a_at) / Fold change /veh NPB (11741838_a_at) / RFU TMPRSS6 (11731388_a_at) / Fold change /veh TMPRSS6 (11731388_a_at) / RFU KRTAP10-2 (11738614_at) / Fold change /veh KRTAP10-2 (11738614_at) / RFU ARHGAP8 /// PRR5-ARHGAP8 (11727945_x_at) / Fold change /veh ARHGAP8 /// PRR5-ARHGAP8 (11727945_x_at) / RFU KRTAP5-7 /// NADSYN1 (11734609_at) / Fold change /veh KRTAP5-7 /// NADSYN1 (11734609_at) / RFU RASL12 (11751679_a_at) / Fold change /veh RASL12 (11751679_a_at) / RFU CDKN2B (11736163_a_at) / Fold change /veh CDKN2B (11736163_a_at) / RFU PRF1 (11729649_at) / Fold change /veh PRF1 (11729649_at) / RFU, ZNF638 /// ZNF638-IT1 / Fold change vs veh, ZNF638 /// ZNF638-IT1 / RFU, PANK3 / Fold change vs veh, PANK3 / RFU, SH3YL1 / Fold change vs veh, SH3YL1 / RFU, ZEB2 / Fold change vs veh, ZEB2 / RFU, NRIP1 / Fold change vs veh, NRIP1 / RFU, PTTG1IP / Fold change vs veh, PTTG1IP / RFU, CAPN2 / Fold change vs veh, CAPN2 / RFU, MED14 / Fold change vs veh, MED14 / RFU, SNORA58 / Fold change vs veh, SNORA58 / RFU, C1orf63 / Fold change vs veh, C1orf63 / RFU, LRRFIP1 / Fold change vs veh, LRRFIP1 / RFU, NDUFAF7 / Fold change vs veh, NDUFAF7 / RFU, SLC12A2 / Fold change vs veh, SLC12A2 / RFU, IBTK / Fold change vs veh, IBTK / RFU, ESF1 / Fold change vs veh, ESF1 / Fold change vs veh, TMEM50B / RFU, TAOK1 / Fold change vs veh, TAOK1 / RFU, ACBD3 / Fold change vs veh, ACBD3 / RFU, TMA16 / Fold change vs veh, TMA16 / RFU, RWDD3 / Fold change vs veh, RWDD3 / RFU, BCAT1 / Fold change vs veh, BCAT1 / RFU, EDEM3 / Fold change vs veh, EDEM3 / RFU, TMEM33 / Fold change vs veh, TMEM33 / RFU, WDR75 / Fold change vs veh, WDR75 / RFU, AHCTF1 / Fold change vs veh, AHCTF1 / RFU, TFRC / Fold change vs veh, TFRC / RFU, ZDHHC17 / Fold change vs veh, ZDHHC17 / RFU, NOM1 / Fold change vs veh, NOM1 / RFU, ARL8B / Fold change vs veh, ARL8B / RFU, ZBTB11 / Fold change vs veh, ZBTB11 / RFU, TAMM41 / Fold change vs veh, TAMM41 / RFU, KIAA1704 /// LOC100996395 / Fold change vs veh, KIAA1704 /// LOC100996395 / RFU, ING1 / Fold change vs veh, ING1 / RFU, TRMT61B / Fold change vs veh, TRMT61B / RFU, FUBP3 / Fold change vs veh, FUBP3 / RFU, TP53 / Fold change vs veh, TP53 / RFU, TNKS2 / Fold change vs veh, TNKS2 / RFU, ZFP14 / Fold change vs veh, ZFP14 / RFU, ACTR2 / Fold change vs veh, ACTR2 / RFU, PPP3R1 / Fold change vs veh, PPP3R1 / RFU, PIK3R1 / Fold change vs veh, PIK3R1 / RFU, HNRNPA1 / Fold change vs veh, HNRNPA1 / RFU, RNF170 / Fold change vs veh, RNF170 / RFU, ZNF28 / Fold change vs veh, ZNF28 / RFU, RNGTT / Fold change vs veh, RNGTT / RFU, OGT / Fold change vs veh, OGT / RFU, BRD1 / Fold change vs veh, BRD1 / RFU, MARS / Fold change vs veh, MARS / RFU, ZNF655 / Fold change vs veh, ZNF655 / RFU, FAHD1 / Fold change vs veh, FAHD1 / RFU, BDP1 / Fold change vs veh, BDP1 / RFU, LRRCC1 / Fold change vs veh, LRRCC1 / RFU, ARID1A / Fold change vs veh, ARID1A / RFU, ZNF146 / Fold change vs veh, ZNF146 / RFU, ZNF330 / Fold change vs veh, ZNF330 / RFU, GPN3 / Fold change vs veh, GPN3 / RFU, C9orf123 / Fold change vs veh, C9orf123 / RFU, N4BP2L2 / Fold change vs veh, N4BP2L2 / RFU, ARFIP1 / Fold change vs veh, ARFIP1 / RFU, FAM179B / Fold change vs veh, FAM179B / RFU, BCL10 / Fold change vs veh, BCL10 / RFU, UHRF1BP1L / Fold change vs veh, UHRF1BP1L / RFU, BET1 / Fold change vs veh, BET1 / RFU, CNOT2 / Fold change vs veh, CNOT2 / RFU, ZNF268 / Fold change vs veh, ZNF268 / Fold change vs veh, ZNF507 / RFU, DGCR2 / Fold change vs veh, DGCR2 / RFU, WDSUB1 / Fold change vs veh, WDSUB1 / Fold change vs veh, HSP90B1 /// MIR3652 / RFU, ADSS / Fold change vs veh, ADSS / RFU, GK / Fold change vs veh, GK / RFU, ZNF148 / Fold change vs veh, ZNF148 / RFU, TAF9 / Fold change vs veh, TAF9 / RFU, SLC1A5 / Fold change vs veh, SLC1A5 / RFU, SLMO2 / Fold change vs veh, SLMO2 / RFU, ABCC4 / Fold change vs veh, ABCC4 / RFU, LOC101060439 /// RAP1B / Fold change vs veh, LOC101060439 /// RAP1B / RFU, RFX7 / Fold change vs veh, RFX7 / RFU, GTPBP10 / Fold change vs veh, GTPBP10 / RFU, CNEP1R1 / Fold change vs veh, CNEP1R1 / RFU, BIVM-ERCC5 /// ERCC5 / Fold change vs veh, BIVM-ERCC5 /// ERCC5 / RFU, ILF3 / Fold change vs veh, ILF3 / RFU 11762660_at / Fold change /veh 11762660_at / RFU VCAN (11757783_s_at) / Fold change /veh VCAN (11757783_s_at) / RFU DDX43 (11728927_at) / Fold change /veh DDX43 (11728927_at) / RFU KRT8 (11758188_x_at) / Fold change /veh KRT8 (11758188_x_at) / RFU NKD1 (11759106_at) / Fold change /veh NKD1 (11759106_at) / RFU SRD5A1 (11742802_a_at) / Fold change /veh SRD5A1 (11742802_a_at) / RFU TPSAB1 /// TPSB2 (11721975_s_at) / Fold change /veh TPSAB1 /// TPSB2 (11721975_s_at) / RFU GSTM3 (11746129_a_at) / Fold change /veh GSTM3 (11746129_a_at) / RFU IL23R (11737362_x_at) / Fold change /veh IL23R (11737362_x_at) / RFU TMEM51 (11727254_a_at) / Fold change /veh TMEM51 (11727254_a_at) / RFU PIWIL2 (11732686_x_at) / Fold change /veh PIWIL2 (11732686_x_at) / RFU ORM1 (11744905_x_at) / Fold change /veh ORM1 (11744905_x_at) / RFU CCDC152 (11743942_at) / Fold change /veh CCDC152 (11743942_at) / RFU ECM1 (11717891_a_at) / Fold change /veh ECM1 (11717891_a_at) / RFU IL23R (11748794_a_at) / Fold change /veh IL23R (11748794_a_at) / RFU TNFAIP8L3 (11732012_x_at) / Fold change /veh TNFAIP8L3 (11732012_x_at) / RFU MBOAT4 (11741988_at) / Fold change /veh MBOAT4 (11741988_at) / RFU 11764193_at / Fold change /veh 11764193_at / RFU TMEM53 (11763286_at) / Fold change /veh TMEM53 (11763286_at) / RFU MAGEB2 (11727129_at) / Fold change /veh MAGEB2 (11727129_at) / RFU TMEM200A (11744735_a_at) / Fold change /veh TMEM200A (11744735_a_at) / RFU CCDC152 (11751479_a_at) / Fold change /veh CCDC152 (11751479_a_at) / RFU FAM211A (11726209_a_at) / Fold change /veh FAM211A (11726209_a_at) / RFU RGS16 (11746705_a_at) / Fold change /veh RGS16 (11746705_a_at) / RFU VCAN (11755009_s_at) / Fold change /veh VCAN (11755009_s_at) / RFU RHOB (11743442_s_at) / Fold change /veh RHOB (11743442_s_at) / RFU RGS16 (11720943_a_at) / Fold change /veh RGS16 (11720943_a_at) / RFU RGS16 (11720944_at) / Fold change /veh RGS16 (11720944_at) / RFU, VPS4B / Fold change vs veh, VPS4B / RFU, CREB1 / Fold change vs veh, CREB1 / RFU, DNAJC13 / Fold change vs veh, DNAJC13 / RFU, GNAQ / Fold change vs veh, GNAQ / RFU, CDK5R1 / Fold change vs veh, CDK5R1 / RFU, ZRANB3 / Fold change vs veh, ZRANB3 / RFU, CUL4A / Fold change vs veh, CUL4A / RFU, CCNY / Fold change vs veh, CCNY / RFU, UFL1 / Fold change vs veh, UFL1 / RFU, COG3 / Fold change vs veh, COG3 / RFU, DIAPH2 / Fold change vs veh, DIAPH2 / RFU, SKA2 / Fold change vs veh, SKA2 / RFU, AFF3 / Fold change vs veh, AFF3 / RFU, LMF1 / Fold change vs veh, LMF1 / RFU, IPO11 / Fold change vs veh, IPO11 / RFU, DFFB / Fold change vs veh, DFFB / RFU, FOXP1 / Fold change vs veh, FOXP1 / RFU, CARD8 / Fold change vs veh, CARD8 / RFU, STRN3 / Fold change vs veh, STRN3 / RFU, ADK / Fold change vs veh, ADK / RFU, RASSF2 / Fold change vs veh, RASSF2 / RFU, WIPF1 / Fold change vs veh, WIPF1 / RFU, LARP1B / Fold change vs veh, LARP1B / RFU, RASA1 / Fold change vs veh, RASA1 / RFU, RB1 / Fold change vs veh, RB1 / RFU, PPFIA1 / Fold change vs veh, PPFIA1 / RFU, MAT2A / Fold change vs veh, MAT2A / RFU, CCT5 / Fold change vs veh, CCT5 / RFU, WDR92 / Fold change vs veh, WDR92 / RFU, CUX1 / Fold change vs veh, CUX1 / RFU, TTC7A / Fold change vs veh, TTC7A / RFU, TMEM135 / Fold change vs veh, TMEM135 / RFU, DEPTOR / Fold change vs veh, DEPTOR / RFU, CPM / Fold change vs veh, CPM / RFU, DNAJB6 / Fold change vs veh, DNAJB6 / RFU, CACNA2D3 / Fold change vs veh, CACNA2D3 / RFU, DTX4 / Fold change vs veh, DTX4 / RFU, TFCP2 / Fold change vs veh, TFCP2 / RFU, GMCL1 /// GMCL1P1 / Fold change vs veh, GMCL1 /// GMCL1P1 / RFU, AEBP2 / Fold change vs veh, AEBP2 / RFU, SNHG1 /// SNORD22 /// SNORD25 /// SNORD26 /// SNORD27 /// SNORD28 /// SNORD29 /// SNORD31 / Fold change vs veh, SNHG1 /// SNORD22 /// SNORD25 /// SNORD26 /// SNORD27 /// SNORD28 /// SNORD29 /// SNORD31 / Fold change (Aza/veh), C12orf56 (ProbeSet 11735607_a_at) / Fold change (ACY-1035/veh), C12orf56 (ProbeSet 11735607_a_at) / Fold change (Aza/veh), FGFR1OP (ProbeSet 11751329_s_at) / Fold change (ACY-1035/veh), FGFR1OP (ProbeSet 11751329_s_at) / Fold change (Aza/veh), VPS36 (ProbeSet 11739960_a_at) / Fold change (ACY-1035/veh), VPS36 (ProbeSet 11739960_a_at) / RFU SYPL1 (11715823_x_at) / Fold change /veh SYPL1 (11715823_x_at) / RFU IGFBP7 (11715501_s_at) / Fold change /veh IGFBP7 (11715501_s_at) / RFU REEP3 (11722064_at) / Fold change /veh REEP3 (11722064_at) / RFU IGLL1 (11728026_x_at) / Fold change /veh IGLL1 (11728026_x_at): dose or concentration left out as unconfirmed. It counts as cell-based, human.

Consider `Nc1ncn([C@@H]2O[C@H](CO)[C@@H](O)[C@H]2O)c(=O)n1` [azacitidine], for which the “Fold change /veh REEP3 (11722064_at)” value was 0.73.

These data come from article PMC5218480 (PLoS ONE, 2017).
